In patent US20140242120A1, “SUBSTITUTED AROMATIC COMPOUNDS FOR INFLAMMATION AND IMMUNE-RELATED USES” (Synta Pharmaceuticals Corp., priority 2006, published 2014):

System: IL-2 production
Assay: Inhibition of IL-2 production in PHA-activated Jurkat cells (ELISA)
Assay type: cell-based
Conditions: Homo sapiens, PHA 2.5 μg/mL, 20 hours, IL-2 ELISA
Experimental: Jurkat cells were placed in a 96 well plate (0.5 million cells per well in 1% FBS medium) then a test compound of this invention was added at different concentrations. After 10 minutes, the cells were activated with PHA. (final concentration 2.5 μg/mL) and incubated for 20 hours at 37° C. under CO2. The final volume was 200 μL. Following incubation, the cells were centrifuged and the supernatants collected and stored at −70° C. prior to assaying for IL-2 production. A commercial ELISA kit (IL-2 Eli-pair, Diaclone Research, Besancon, France) was used to detect production of IL-2, from which dose response curves were obtained. The IC50 value was calculated as the concentration at which 50% of maximum IL-2 production after stimulation was inhibited versus a non-stimulation control.

SMILES	IC50 [nM]
Cc1ccc(-c2ncco2)cc1-c1ccc(NS(=O)(=O)c2c(F)cccc2F)cc1 [Compound 1, 2,6-Difluoro-N-(2′-methyl-5′-oxazol-2-yl-biphenyl-4-yl)-benzenesulfonamide]	50 to 500
Cc1ccc(-c2cnco2)cc1-c1ccc(NC(=O)Nc2c(F)cccc2F)cc1 [Compound 4, 1-(2,6-Difluoro-phenyl)-3-(2′-methyl-5′-oxazol-5-yl-biphenyl-4-yl)-urea]	< 25
Cc1ccc(-c2ncco2)cc1-c1ccc(NC(=O)Nc2ncncc2C)cc1 [Compound 74, 1-(2′-Methyl-5′-(oxazol-2-yl)biphenyl-4-yl)-3-(5-methylpyrimidin-4-yl)urea]	25 to 50

The next lines start with the values.

IC50 [nM]	SMILES
500 to 1000	Cc1ccc(-c2ncco2)cc1-c1ccc(/N=C/c2c(F)cccc2F)cc1 [Compound 76, (E)-N-(2,6-difluorobenzylidene)-2′-methyl-5′-(oxazol-2-yl)biphenyl-4-amine]
50 to 500	COC(=O)c1ccc(C)c(-c2ccc(NNC(=O)c3c(F)cccc3F)cc2)c1 [Compound 77, methyl 4′-(2-(2,6-difluorobenzoyl) hydrazinyl)-6-methylbiphenyl-3-carboxylate]
